Measurements reported in the kinase profiling compilation of Christmann-Franck et al. (2016).

Legend:
Assay in all cases: radiometric filter-binding kinase assay
TAOK1 (human) = TAOK1 (human) (UniProt Q7L7X3)
DYRK1A (human) = DYRK1A (human) (UniProt Q13627)
MST4 (human) = MST4 (human) (UniProt Q9P289)
PRKCZ (human) = PRKCZ (human) (UniProt Q05513)
ERBB4 (human) = ERBB4 (human) (UniProt Q15303); settings: compound 10.0 µM
MARK3 (human) = MARK3 (human) (UniProt P27448)
HIPK3 (human) = HIPK3 (human) (UniProt Q9H422)
DAPK1 (human) = DAPK1 (human) (UniProt P53355)
BTK (human) = BTK (human) (UniProt Q06187)
Chain of BTK (human) (Q06187 whole entry, looked up): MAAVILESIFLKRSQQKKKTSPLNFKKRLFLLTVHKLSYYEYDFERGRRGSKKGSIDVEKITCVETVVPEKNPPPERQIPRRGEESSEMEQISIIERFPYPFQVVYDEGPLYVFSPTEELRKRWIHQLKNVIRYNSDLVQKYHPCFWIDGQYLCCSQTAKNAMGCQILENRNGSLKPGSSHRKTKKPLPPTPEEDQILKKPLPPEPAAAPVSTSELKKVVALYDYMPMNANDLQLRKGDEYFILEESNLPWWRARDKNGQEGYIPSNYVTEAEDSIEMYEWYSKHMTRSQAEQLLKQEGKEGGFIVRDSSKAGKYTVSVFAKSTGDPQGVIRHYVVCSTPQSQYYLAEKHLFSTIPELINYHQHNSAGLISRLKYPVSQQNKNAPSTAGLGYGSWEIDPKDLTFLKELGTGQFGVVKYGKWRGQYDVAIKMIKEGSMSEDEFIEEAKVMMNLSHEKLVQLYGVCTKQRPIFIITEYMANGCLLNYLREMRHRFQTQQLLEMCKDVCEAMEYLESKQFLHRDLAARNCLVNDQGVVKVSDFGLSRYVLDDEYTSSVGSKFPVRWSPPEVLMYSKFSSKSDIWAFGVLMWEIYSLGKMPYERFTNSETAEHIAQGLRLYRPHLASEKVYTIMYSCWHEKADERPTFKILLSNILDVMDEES

LCK (mouse) = settings: accession and sequence are those of the human protein
DYRK2 (human) = DYRK2 (human) (UniProt Q92630)
Chain of DYRK2 (human) (Q92630 whole entry, looked up): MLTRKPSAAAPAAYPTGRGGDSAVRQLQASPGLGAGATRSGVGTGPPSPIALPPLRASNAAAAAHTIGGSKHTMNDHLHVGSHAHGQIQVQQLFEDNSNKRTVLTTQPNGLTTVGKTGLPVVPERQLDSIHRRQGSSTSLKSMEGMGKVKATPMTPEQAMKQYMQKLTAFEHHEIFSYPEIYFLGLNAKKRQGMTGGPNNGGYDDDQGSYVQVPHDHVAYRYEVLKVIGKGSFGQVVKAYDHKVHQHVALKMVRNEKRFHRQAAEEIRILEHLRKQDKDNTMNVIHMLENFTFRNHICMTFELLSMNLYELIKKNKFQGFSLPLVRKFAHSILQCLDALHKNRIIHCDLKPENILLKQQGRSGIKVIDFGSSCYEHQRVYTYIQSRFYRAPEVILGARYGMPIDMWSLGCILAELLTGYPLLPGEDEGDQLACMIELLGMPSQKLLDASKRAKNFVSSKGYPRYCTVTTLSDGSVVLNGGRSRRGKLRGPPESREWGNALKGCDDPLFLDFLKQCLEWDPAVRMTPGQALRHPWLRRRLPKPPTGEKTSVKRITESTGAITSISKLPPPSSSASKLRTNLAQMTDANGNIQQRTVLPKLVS

HIPK1 (human) = HIPK1 (human) (UniProt Q86Z02)
EEF2K (human) = EEF2K (human) (UniProt O00418)
NEK6 (human) = NEK6 (human) (UniProt Q9HC98)
MAPK13 (human) = MAPK13 (human) (UniProt O15264)
PAK6 (human) = PAK6 (human) (UniProt Q9NQU5)
MAPK14 (human) = MAPK14 (human) (UniProt Q16539)
ROCK2 (rat) = settings: compound 1.0 µM; accession and sequence are those of the human protein
[1] = system: AKT1 (human), P31749 [S473D]
RPS6KA5 KD1 KD2 (human) = RPS6KA5 KD1 KD2 (human) (UniProt O75582)
MAPKAPK5 (human) = MAPKAPK5 (human) (UniProt Q8IW41)
Chain of MAPKAPK5 (human) (Q8IW41 whole entry, looked up): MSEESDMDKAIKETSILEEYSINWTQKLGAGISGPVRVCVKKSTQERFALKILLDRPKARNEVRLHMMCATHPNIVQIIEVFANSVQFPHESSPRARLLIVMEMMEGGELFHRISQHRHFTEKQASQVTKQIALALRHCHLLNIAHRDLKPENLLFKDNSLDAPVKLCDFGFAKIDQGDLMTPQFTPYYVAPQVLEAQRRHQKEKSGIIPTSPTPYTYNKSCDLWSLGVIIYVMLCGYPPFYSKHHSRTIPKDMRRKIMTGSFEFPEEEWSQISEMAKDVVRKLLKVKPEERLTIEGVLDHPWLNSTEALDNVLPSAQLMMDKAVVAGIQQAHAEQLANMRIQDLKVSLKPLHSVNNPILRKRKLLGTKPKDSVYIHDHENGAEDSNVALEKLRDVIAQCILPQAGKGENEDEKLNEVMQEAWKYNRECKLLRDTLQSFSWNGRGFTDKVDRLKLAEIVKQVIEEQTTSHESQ

CaMK1 (human) = CaMK1 (human) (UniProt Q14012)
EPHB3 (human) = EPHB3 (human) (UniProt P54753)
PAK7 (human) = PAK7 (human) (UniProt Q9P286)
Chain of PAK7 (human) (Q9P286 whole entry, looked up): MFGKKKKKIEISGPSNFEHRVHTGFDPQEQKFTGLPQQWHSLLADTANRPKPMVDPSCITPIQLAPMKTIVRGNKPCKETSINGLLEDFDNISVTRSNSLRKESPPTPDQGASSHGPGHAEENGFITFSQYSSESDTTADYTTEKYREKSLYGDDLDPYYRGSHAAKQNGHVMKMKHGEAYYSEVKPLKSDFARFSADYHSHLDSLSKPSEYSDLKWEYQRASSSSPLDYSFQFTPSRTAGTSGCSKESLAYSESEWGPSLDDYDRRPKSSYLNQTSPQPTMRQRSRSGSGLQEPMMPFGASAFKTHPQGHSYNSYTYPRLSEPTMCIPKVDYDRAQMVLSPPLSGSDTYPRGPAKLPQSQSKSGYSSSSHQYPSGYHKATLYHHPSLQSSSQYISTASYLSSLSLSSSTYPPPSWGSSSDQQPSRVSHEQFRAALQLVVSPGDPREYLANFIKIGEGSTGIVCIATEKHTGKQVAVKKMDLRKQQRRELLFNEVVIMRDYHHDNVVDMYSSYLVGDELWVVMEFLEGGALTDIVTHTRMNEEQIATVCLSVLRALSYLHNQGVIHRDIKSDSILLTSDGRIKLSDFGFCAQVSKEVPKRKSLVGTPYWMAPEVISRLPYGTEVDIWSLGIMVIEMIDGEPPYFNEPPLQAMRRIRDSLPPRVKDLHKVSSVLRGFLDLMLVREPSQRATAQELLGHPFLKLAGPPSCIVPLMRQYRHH

NUAK1 (human) = NUAK1 (human) (UniProt O60285)
Chain of NUAK1 (human) (O60285 whole entry, looked up): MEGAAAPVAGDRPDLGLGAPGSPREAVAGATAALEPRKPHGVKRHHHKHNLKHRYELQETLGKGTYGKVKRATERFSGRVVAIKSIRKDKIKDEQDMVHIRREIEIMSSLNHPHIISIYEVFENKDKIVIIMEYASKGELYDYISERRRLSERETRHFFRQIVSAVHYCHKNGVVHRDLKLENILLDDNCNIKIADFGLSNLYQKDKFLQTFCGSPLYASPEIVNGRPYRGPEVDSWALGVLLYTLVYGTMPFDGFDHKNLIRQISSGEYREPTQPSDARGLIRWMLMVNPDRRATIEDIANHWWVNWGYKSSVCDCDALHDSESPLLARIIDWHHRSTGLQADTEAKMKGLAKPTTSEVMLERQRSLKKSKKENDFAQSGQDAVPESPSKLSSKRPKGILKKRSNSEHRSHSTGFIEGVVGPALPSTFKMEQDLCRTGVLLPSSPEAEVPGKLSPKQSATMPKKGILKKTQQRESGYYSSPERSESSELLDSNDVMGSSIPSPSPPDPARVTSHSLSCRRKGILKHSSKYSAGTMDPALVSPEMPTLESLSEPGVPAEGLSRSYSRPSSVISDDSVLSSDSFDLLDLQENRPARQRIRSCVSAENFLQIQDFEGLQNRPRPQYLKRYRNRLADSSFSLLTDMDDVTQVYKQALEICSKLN

HIPK2 (human) = HIPK2 (human) (UniProt Q9H2X6)
PAK4 (human) = PAK4 (human) (UniProt O96013); settings: compound 10.0 µM
EPHA2 (human) = EPHA2 (human) (UniProt P29317)
EPHB1 (human) = EPHB1 (human) (UniProt P54762)
CSNK2A1 (human) = CSNK2A1 (human) (UniProt P68400)
Chain of CSNK2A1 (human) (P68400 whole entry, looked up): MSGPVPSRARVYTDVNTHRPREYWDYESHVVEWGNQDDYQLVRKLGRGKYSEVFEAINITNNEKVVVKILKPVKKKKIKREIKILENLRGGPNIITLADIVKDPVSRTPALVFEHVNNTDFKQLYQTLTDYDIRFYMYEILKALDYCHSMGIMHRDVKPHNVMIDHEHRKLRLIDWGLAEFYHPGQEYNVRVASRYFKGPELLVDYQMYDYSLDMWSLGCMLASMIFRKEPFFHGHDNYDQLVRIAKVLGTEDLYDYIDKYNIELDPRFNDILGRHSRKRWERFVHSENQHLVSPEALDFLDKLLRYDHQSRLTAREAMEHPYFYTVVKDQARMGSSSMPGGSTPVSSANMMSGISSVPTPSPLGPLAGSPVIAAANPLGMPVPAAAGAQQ

MAP3K9 (human) = MAP3K9 (human) (UniProt P80192)
Chain of MAP3K9 (human) (P80192 whole entry, looked up): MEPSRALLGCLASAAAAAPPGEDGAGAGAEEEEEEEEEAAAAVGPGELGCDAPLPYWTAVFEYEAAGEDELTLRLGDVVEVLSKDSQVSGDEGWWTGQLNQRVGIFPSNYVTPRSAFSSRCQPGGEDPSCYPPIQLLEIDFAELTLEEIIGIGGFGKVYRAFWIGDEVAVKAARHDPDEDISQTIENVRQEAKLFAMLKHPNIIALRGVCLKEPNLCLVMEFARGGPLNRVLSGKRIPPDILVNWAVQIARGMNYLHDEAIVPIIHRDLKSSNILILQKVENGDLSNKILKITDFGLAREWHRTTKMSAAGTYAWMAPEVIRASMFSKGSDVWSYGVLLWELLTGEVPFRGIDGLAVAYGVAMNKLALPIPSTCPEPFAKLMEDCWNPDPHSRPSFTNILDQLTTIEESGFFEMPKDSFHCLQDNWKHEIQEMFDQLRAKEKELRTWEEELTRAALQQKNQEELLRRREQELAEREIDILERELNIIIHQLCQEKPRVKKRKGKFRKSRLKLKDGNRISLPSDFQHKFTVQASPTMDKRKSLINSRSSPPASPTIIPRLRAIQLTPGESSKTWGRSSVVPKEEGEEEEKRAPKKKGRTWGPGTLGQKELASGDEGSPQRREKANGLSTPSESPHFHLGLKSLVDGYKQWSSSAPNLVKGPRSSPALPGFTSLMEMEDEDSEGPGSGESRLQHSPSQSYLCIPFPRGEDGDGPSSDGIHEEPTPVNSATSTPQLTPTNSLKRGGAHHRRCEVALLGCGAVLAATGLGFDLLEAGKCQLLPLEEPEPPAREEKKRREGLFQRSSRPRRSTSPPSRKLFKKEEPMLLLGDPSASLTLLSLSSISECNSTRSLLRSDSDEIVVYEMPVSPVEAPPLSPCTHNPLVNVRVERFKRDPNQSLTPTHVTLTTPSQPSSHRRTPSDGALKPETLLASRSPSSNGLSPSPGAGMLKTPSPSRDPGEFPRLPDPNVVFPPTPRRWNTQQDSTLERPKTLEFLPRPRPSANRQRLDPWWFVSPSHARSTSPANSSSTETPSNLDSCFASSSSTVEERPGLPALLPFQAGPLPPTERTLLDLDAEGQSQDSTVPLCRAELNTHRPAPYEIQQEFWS

MAP2K6 (human) = MAP2K6 (human) (UniProt P52564)
MARK1 (human) = MARK1 (human) (UniProt Q9P0L2)
DYRK3 (human) = DYRK3 (human) (UniProt O43781)
IKBKE (human) = IKBKE (human) (UniProt Q14164)

Chain of MST4 (human) (Q9P289 whole entry, looked up): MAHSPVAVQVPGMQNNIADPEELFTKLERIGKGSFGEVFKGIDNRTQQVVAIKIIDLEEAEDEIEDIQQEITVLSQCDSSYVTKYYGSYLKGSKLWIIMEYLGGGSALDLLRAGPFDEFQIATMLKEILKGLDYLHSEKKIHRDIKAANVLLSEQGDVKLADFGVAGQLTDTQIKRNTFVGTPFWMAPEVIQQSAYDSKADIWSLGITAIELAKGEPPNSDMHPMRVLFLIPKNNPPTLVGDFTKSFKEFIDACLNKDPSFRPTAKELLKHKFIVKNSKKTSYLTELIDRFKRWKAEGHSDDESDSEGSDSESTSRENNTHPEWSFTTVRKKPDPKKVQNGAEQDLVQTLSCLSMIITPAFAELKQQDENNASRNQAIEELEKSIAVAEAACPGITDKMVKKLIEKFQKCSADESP

Compound: O=C(NOC[C@H](O)CO)c1ccc(F)c(F)c1Nc1ccc(I)cc1Cl
- residual activity (TAOK1 (human); compound 1.0 µM): 101%
- residual activity (TAOK1 (human); compound 10.0 µM): 109%
- residual activity (DYRK1A (human); compound 1.0 µM): 94%
- residual activity (DYRK1A (human); compound 10.0 µM): 104%
- residual activity (MST4 (human); compound 1.0 µM): 103%
- residual activity (MST4 (human); compound 10.0 µM): 104%
- residual activity (PRKCZ (human); compound 1.0 µM): 97%
- residual activity (PRKCZ (human); compound 10.0 µM): 104%
- residual activity (ERBB4 (human)): 87%
- residual activity (MARK3 (human); compound 1.0 µM): 91%
- residual activity (MARK3 (human); compound 10.0 µM): 74%
- residual activity (HIPK3 (human); compound 1.0 µM): 101%
- residual activity (HIPK3 (human); compound 10.0 µM): 107%
- residual activity (DAPK1 (human); compound 1.0 µM): 96%
- residual activity (DAPK1 (human); compound 10.0 µM): 90%
- residual activity (BTK (human); compound 1.0 µM): 110%
- residual activity (BTK (human); compound 10.0 µM): 100%
- residual activity (LCK (mouse); compound 1.0 µM): 92%
- residual activity (LCK (mouse); compound 10.0 µM): 109%
- residual activity (DYRK2 (human); compound 1.0 µM): 99%
- residual activity (DYRK2 (human); compound 10.0 µM): 107%
- residual activity (HIPK1 (human); compound 1.0 µM): 84%
- residual activity (HIPK1 (human); compound 10.0 µM): 92%
- residual activity (EEF2K (human); compound 1.0 µM): 83%
- residual activity (EEF2K (human); compound 10.0 µM): 93%
- residual activity (NEK6 (human); compound 1.0 µM): 95%
- residual activity (NEK6 (human); compound 10.0 µM): 110%
- residual activity (MAPK13 (human); compound 1.0 µM): 85%
- residual activity (MAPK13 (human); compound 10.0 µM): 97%
- residual activity (PAK6 (human); compound 1.0 µM): 95%
- residual activity (PAK6 (human); compound 10.0 µM): 105%
- residual activity (MAPK14 (human); compound 1.0 µM): 96%
- residual activity (MAPK14 (human); compound 10.0 µM): 97%
- residual activity (ROCK2 (rat)): 84%
- residual activity ([1]; compound 1.0 µM): 107%
- residual activity ([1]; compound 10.0 µM): 104%
- residual activity (RPS6KA5 KD1 KD2 (human); compound 1.0 µM): 97%
- residual activity (RPS6KA5 KD1 KD2 (human); compound 10.0 µM): 96%
- residual activity (MAPKAPK5 (human); compound 1.0 µM): 98%
- residual activity (MAPKAPK5 (human); compound 10.0 µM): 99%
- residual activity (CaMK1 (human); compound 1.0 µM): 96%
- residual activity (CaMK1 (human); compound 10.0 µM): 91%
- residual activity (EPHB3 (human); compound 1.0 µM): 101%
- residual activity (EPHB3 (human); compound 10.0 µM): 113%
- residual activity (PAK7 (human); compound 1.0 µM): 104%
- residual activity (PAK7 (human); compound 10.0 µM): 85%
- residual activity (NUAK1 (human); compound 1.0 µM): 89%
- residual activity (NUAK1 (human); compound 10.0 µM): 107%
- residual activity (HIPK2 (human); compound 1.0 µM): 93%
- residual activity (HIPK2 (human); compound 10.0 µM): 104%
- residual activity (PAK4 (human)): 65%
- residual activity (EPHA2 (human); compound 1.0 µM): 86%
- residual activity (EPHA2 (human); compound 10.0 µM): 94%
- residual activity (EPHB1 (human); compound 1.0 µM): 95%
- residual activity (EPHB1 (human); compound 10.0 µM): 115%
- residual activity (CSNK2A1 (human); compound 1.0 µM): 107%
- residual activity (CSNK2A1 (human); compound 10.0 µM): 118%
- residual activity (MAP3K9 (human); compound 1.0 µM): 95%
- residual activity (MAP3K9 (human); compound 10.0 µM): 108%
- residual activity (MAP2K6 (human); compound 1.0 µM): 93%
- residual activity (MAP2K6 (human); compound 10.0 µM): 102%
- residual activity (MARK1 (human); compound 1.0 µM): 85%
- residual activity (MARK1 (human); compound 10.0 µM): 85%
- residual activity (DYRK3 (human); compound 1.0 µM): 85%
- residual activity (DYRK3 (human); compound 10.0 µM): 85%
- residual activity (IKBKE (human); compound 1.0 µM): 103%
- residual activity (IKBKE (human); compound 10.0 µM): 111%
